Results taken from US12215354B2, “Differentiation of human embryonic stem cells into single hormonal insulin positive cells” (Janssen Biotech, Inc., priority 2011, dated 2025).

Test system: human embryonic stem cell line H1
Experiment: Real-time PCR gene expression, dose and stage of ascorbic acid (Example 12)
Assay type: cell-based
Method: Cells of the human embryonic stem cell line H1 at various passages (passage 40 to passage 52) were seeded as single cells at a density of 100,000 cells/cm^2 on MATRIGEL™ (1:30 dilution) coated dishes in mTesr™1 media and 10 μM of Y27632. Forty eight hours post seeding, cultures were differentiated into pancreatic endocrine lineage as follows: • a. Stage 1 (Definitive Endoderm (DE)−3 days): Prior to start of DE, the cultures were washed and incubated with incomplete PBS (no Mg or Ca) for 30 seconds followed by addition of the stage 1 media. Human embryonic stem cells cultured as single cells on MATRIGEL™-coated dishes were treated with MCDB-131 medium supplemented with 0.1% fatty acid-free BSA, 0.0012 g/ml sodium bicarbonate, 1× GLUTAMAX™, 5 mM D-Glucose, and 100 ng/ml GDF8 plus 1 μM MCX compound (GSK3B inhibitor) for one day. Cells were then treated with MCDB-131 medium supplemented with 0.1% fatty acid-free BSA, 0.0012 g/ml sodium bicarbonate, 1× GLUTAMAX™, 5 mM glucose, and 100 ng/ml GDF8 plus 100 nM MCX compound for day two, followed by an additional day in MCDB-131 medium supplemented with 0.1% fatty acid-free BSA, 0.0012 g/ml sodium bicarbonate, 1× GLUTAMAX™, 5 mM Glucose, and 100 ng/ml GDF8. • b. Stage 2 (Primitive gut tube−2 days): Stage 1 cells were treated with MCDB-131 medium supplemented with 0.1% fatty acid-free BSA, 0.0012 g/ml sodium bicarbonate, 1× GLUTAMAX™, 5 mM D-Glucose, with or without the addition of 0.25 mM ascorbic acid and 25 ng/ml FGF7 for two days. • c. Stage 3 (Foregut−2 days): Stage 2 cells were treated with MCDB131 medium supplemented with 1:200 dilution of ITS-X, 2.5 mM Glucose, 1× GLUTAMAX™, 0.0015 g/ml sodium bicarbonate, 2% fatty acid-free BSA, 10 ng/ml Activin A, 25 ng/ml FGF7, 0.25 μM SANT-1, +/−0.25 mM ascorbic acid, 1 μM RA, 200 nM TPB, 100 nM LDN-193189 for day 1, followed by treatment with MCDB131 medium supplemented with 1:200 dilution of ITS-X, 2.5 mM Glucose, 1× GLUTAMAX™, 0.0015 g/ml sodium bicarbonate, 2% fatty acid-free BSA, 10 ng/ml Activin A, 25 ng/ml FGF7, 0.25 μM SANT-1, +/−0.25 mM ascorbic acid, 1 μM RA, 200 nM TPB, 10 nM LDN-193189 for an additional day. • d. Stage 4 (Pancreatic foregut precursor-2 days): Stage 3 cells were treated with MCDB131 medium supplemented with 1:200 dilution of ITS-X, 2.5 mM Glucose, 1× GLUTAMAX™, 0.0015 g/ml sodium bicarbonate, 2% fatty acid-free BSA, 0.25 μM SANT-1, 50 nM RA, 200 nM TPB, 50 nM LDN-193189, with or without the addition of 0.25 mM to 1 mM ascorbic acid for two days. • e. […]

[1] = at stage 5, ascorbic acid added at stages 2-4

## O=C1O[C@H]([C@@H](O)CO)C(O)=C1O [ascorbic acid]
At S4
  benefit of 0.5-1 mM as compared to 0.25 mM ascorbic acid: no significant benefit
[1]
  expression of insulin and Pax4: maintaining
  expression of somatostatin, glucagon, and Pax6: significantly reduced
At stage S3-5, ascorbic acid added at stage 2
  expression of glucagon and somatostatin: effective in lowering
